This passage reports IC50 results from patent publication US20230159453A1 (COCRYSTAL PHARMA, INC., priority 2020, published 2023).

A value given as a limit tells only on which side of the number the result lay.

The target in the assay is SARS2 protease (Severe acute respiratory syndrome coronavirus 2, UniProt P0DTD1). Description: SARS-CoV-2 protease inhibition assay (SARS2 FRET protease assay). In kind it is biochemical. The conditions noted are these: SARS-CoV-2 protease 25 nM, FRET, peptide substrate 1.3 μM, 30 minutes at 30° C., compounds 20 μM to 1.0 nM; read-out: IC50.

Regarding `CC(C)C[C@H](NC(=O)OCC(C)(C)c1cccc(Cl)c1)C(=O)N[C@@H](C[C@@H]1CCNC1=O)C(=O)C(=O)NC1CC1` [Compound C87, 2-(3-Chlorophenyl)-2-methylpropyl ((S)-1-(((S)-4-(cyclopropylamino)-3,4-dioxo-1-((S)-2-oxopyrrolidin-3-yl)butan-2-yl)amino)-4-methyl-1-oxopentan-2-yl)carbamate], the IC50 amounted to 700 nM. Turning to `CC(C)C[C@H](NC(=O)OC1(Cc2cccnc2)CC1)C(=O)N[C@H](C=O)C[C@@H]1CCNC1=O` [Compound C71, 1-(Pyridin-3-ylmethyl)cyclopropyl ((S)-4-methyl-1-oxo-1-(((S)-1-oxo-3-((S)-2-oxopyrrolidin-3-yl)propan-2-yl)amino)pentan-2-yl)carbamate], the IC50 stood at 1600 nM. Under `COc1cccc2[nH]c(C(=O)N[C@@H](CC3CCCCC3)C(=O)NC(CC3CC4(CCOCC4)NC3=O)C(=O)C(=O)NC3CC3)cc12` (stereo partly drawn) [Compound C191, N-((2S)-3-Cyclohexyl-1-((4-(cyclopropylamino)-3,4-dioxo-1-(2-oxo-8-oxa-1-azaspiro[4.5]decan-3-yl)butan-2-yl)amino)-1-oxopropan-2-yl)-4-methoxy-1H-indole-2-carboxamide] stands 305 nM; under `O=C[C@H](CC1CC2(CCCC2)NC1=O)NC(=O)[C@H](CC1CCCCC1)NC(=O)OC1CCCC1Cc1cccc(Cl)c1` (stereo partly drawn) [Compound C165, 2-(3-chlorobenzyl)cyclopentyl ((2S)-3-cyclohexyl-1-oxo-1-((1-oxo-3-(2-oxo-1-azaspiro[4.4]nonan-3-yl)propan-2-yl)amino)propan-2-yl)carbamate], 106 nM. For `CC1(C)CC(CC(C=O)NC(=O)[C@H](CC2CCCCC2)NC(=O)OC(c2cccc(F)c2)C(C)(C)c2cccc(Cl)c2)C(=O)N1` (stereo partly drawn) [Compound C222, 2-(3-Chlorophenyl)-1-(3-fluorophenyl)-2-methylpropyl ((2S)-3-cyclohexyl-1-((1-(5,5-dimethyl-2-oxopyrrolidin-3-yl)-3-oxopropan-2-yl)amino)-1-oxopropan-2-yl)carbamate], the IC50 worked out at 235 nM. Under `CC1(C)CC(CC(C=O)NC(=O)[C@H](CC2CCCCC2)NC(=O)OC(Cc2cccc(Cl)c2)c2ccccc2)C(=O)N1` (stereo partly drawn) [Compound C180, 2-(3-Chlorophenyl)-1-phenylethyl ((2S)-3-cyclohexyl-1-((1-(5,5-dimethyl-2-oxopyrrolidin-3-yl)-3-oxopropan-2-yl)amino)-1-oxopropan-2-yl) carbamate] stands 56.6 nM; under `CCOP(=O)(OCC)C(O)C(CC1CC2(CCN(C(C)=O)CC2)NC1=O)NC(=O)[C@H](CC1CCCCC1)NC(=O)c1cc2ccccc2[nH]1` (stereo partly drawn) [Compound C81, Diethyl (3-(8-acetyl-2-oxo-1,8-diazaspiro[4.5]decan-3-yl)-2-((S)-3-cyclohexyl-2-(1H-indole-2-carboxamido)propanamido)-1-hydroxypropyl)phosphonate], 200 nM; under `CC(C)C[C@H](NC(=O)OC(c1cccc(Cl)c1)C1(c2cccc(Cl)c2)CC1)C(=O)N[C@H](C=O)C[C@@H]1CCNC1=O` (stereo partly drawn) [Compound C203, (3-chlorophenyl)(1-(3-chlorophenyl)cyclopropyl)methyl ((S)-4-methyl-1-oxo-1-(((S)-1-oxo-3-((S)-2-oxopyrrolidin-3-yl)propan-2-yl)amino)pentan-2-yl)carbamate], 10.5 nM. Under `CC(=O)N1CCC2(CC1)CC(CC(NC(=O)[C@H](CC1CCCCC1)NC(=O)c1cc3cc(Cl)ccc3[nH]1)C(=O)C(N)=O)C(=O)N2` (stereo partly drawn) [Compound C126, N-((2S)-1-((1-(8-acetyl-2-oxo-1,8-diazaspiro[4.5]decan-3-yl)-4-amino-3,4-dioxobutan-2-yl)amino)-3-cyclohexyl-1-oxopropan-2-yl)-5-chloro-1H-indole-2-carboxamide] stands 1190 nM; under `CC(C)C[C@H](NC(=O)OC(Cc1ccccc1)c1ccccc1)C(=O)N[C@@H](C[C@@H]1CCNC1=O)C(O)S(=O)(=O)O` (stereo partly drawn) [Compound C53, (2S)-2-((2S)-2-(((1,2-Diphenylethoxy)carbonyl)amino)-4-methylpentanamido)-1-hydroxy-3-((S)-2-oxopyrrolidin-3-yl)propane-1-sulfonate], 40 nM.

Take `CC(C)(c1cccc(Cl)c1)C(OC(=O)N[C@@H](CC1CCCCC1)C(=O)N[C@H](C=O)C[C@@H]1CCNC1=O)c1ccccc1Cl` (stereo partly drawn) [Compound C160, 1-(2-chlorophenyl)-2-(3-chlorophenyl)-2-methylpropyl ((S)-3-cyclohexyl-1-oxo-1-(((S)-1-oxo-3-((S)-2-oxopyrrolidin-3-yl)propan-2-yl)amino)propan-2-yl) carbamate]: the IC50 is 24.7 nM. On to `CCOP(=O)(OCC)C(O)[C@H](CCC(=O)N1CCOc2ccccc2C1)NC(=O)[C@H](CC1CCCCC1)NC(=O)N(C)Cc1cccc(Cl)c1` (stereo partly drawn) [Compound C31, Diethyl ((2S)-2-((S)-2-(3-(3-chlorobenzyl)-3-methylureido)-3-cyclohexylpropanamido)-5-(2,3-dihydrobenzo[f][1,4]oxazepin-4(5H)-yl)-1-hydroxy-5-oxopentyl)phosphonate], for which the IC50 was over 200000 nM. Under `CC(C)C[C@H](NC(=O)OC(c1cccc(Cl)c1)C(F)(F)c1cccc(Cl)c1)C(=O)N[C@H](C=O)C[C@@H]1CCNC1=O` (some centres unmarked) [Compound C266] stands 20 nM; under `CN(Cc1cccc(Cl)c1)C(=O)N[C@@H](CC1CCCCC1)C(=O)N[C@H](C=O)CCC(=O)N1CCOc2ccccc2C1` [Compound C35, (S)-2-(3-(3-Chlorobenzyl)-3-methylureido)-3-cyclohexyl-N—((S)-5-(2,3-dihydrobenzo[f][1,4]oxazepin-4(5H)-yl)-1,5-dioxopentan-2-yl)propanamide], 18900 nM; under `CC(=O)N1CCC2(CC1)CC(CC(C=O)NC(=O)[C@H](CC(C)C)NC(=O)OCc1cccc(Cl)c1)C(=O)N2` (stereo partly drawn) [Compound C54, 3-Chlorobenzyl ((2S)-1-((1-(8-acetyl-2-oxo-1,8-diazaspiro[4.5]decan-3-yl)-3-oxopropan-2-yl)amino)-4-methyl-1-oxopentan-2-yl)carbamate], 100 nM. In the case of `CC1(C)CC(C[C@H](NC(=O)[C@H](CC2CCCCC2)NC(=O)OC2CCCC2Cc2cccc(Cl)c2)C(=O)C(=O)NC2CC2)C(=O)N1` (stereo partly drawn) [Compound C167, 2-(3-Chlorobenzyl)cyclopentyl ((2S)-3-cyclohexyl-1-((4-(cyclopropylamino)-1-(5,5-dimethyl-2-oxopyrrolidin-3-yl)-3,4-dioxobutan-2-yl)amino)-1-oxopropan-2-yl)carbamate] it was 2050 nM. In the case of `O=C[C@H](C[C@@H]1CCNC1=O)NC(=O)[C@H](CC1CCCCC1)NC(=O)OC(c1cccc(Cl)c1)C1(c2cccc(Cl)c2)CC1` (stereo partly drawn) [Compound C250, (3-Chlorophenyl)(1-(3-chlorophenyl)cyclopropyl)methyl ((S)-3-cyclohexyl-1-oxo-1-(((S)-1-oxo-3-((S)-2-oxopyrrolidin-3-yl)propan-2-yl)amino)propan-2-yl)carbamate] it was 10 nM; in that of `CC(C)C[C@H](NC(=O)O[C@@H](c1ccccc1)C(C)(C)c1cccc(Cl)c1)C(=O)N[C@H](C=O)C[C@@H]1CCNC1=O` [Compound C275], 20 nM; in that of `CCOP(=O)(OCC)C(O)[C@H](CCC(=O)N1CCNC(c2ccccc2)C1)NC(=O)[C@H](CC1CCCCC1)NC(=O)OCc1cccc(Cl)c1` (stereo partly drawn) [Compound C12, 3-Chlorobenzyl ((2S)-3-cyclohexyl-1-(((2S)-1-(diethoxyphosphoryl)-1-hydroxy-5-oxo-5-(3-phenylpiperazin-1-yl)pentan-2-yl)amino)-1-oxopropan-2-yl)carbamate], over 200000 nM. Consider `CCCCCOC(=O)N[C@@H](CC1CCCCC1)C(=O)N[C@@H](CCC(=O)N1CCOc2ccccc2C1)C(O)P(=O)(OCC)OCC` (stereo partly drawn) [Compound C6, Pentyl ((2S)-3-cyclohexyl-1-(((2S)-1-(diethoxyphosphoryl)-5-(2,3-dihydrobenzo[f][1,4]oxazepin-4(5H)-yl)-1-hydroxy-5-oxopentan-2-yl)amino)-1-oxopropan-2-yl)carbamate], for which the concentration for half-maximal inhibition (IC50) is over 200000 nM. On to `CC(C)C[C@H](NC(=O)OC(c1ccccc1)C(C)(C)c1cccc(Cl)c1)C(=O)N[C@@H](C[C@@H]1CCNC1=O)C(=O)C(=O)NC1CC1` (stereo partly drawn) [Compound C166, 2-(3-Chlorophenyl)-2-methyl-1-phenylpropyl ((S)-1-(((S)-4-(cyclopropylamino)-3,4-dioxo-1-((S)-2-oxopyrrolidin-3-yl)butan-2-yl)amino)-4-methyl-1-oxopentan-2-yl)carbamate], for which the IC50 came to 14 nM. On to `COc1cccc2[nH]c(C(=O)N[C@@H](CC3CCCCC3)C(=O)NC(C=O)CC3CC4(CCCCC4)NC3=O)cc12` (stereo partly drawn) [Compound C193, N-((2S)-3-Cyclohexyl-1-oxo-1-((1-oxo-3-(2-oxo-1-azaspiro[4.5]decan-3-yl)propan-2-yl)amino)propan-2-yl)-4-methoxy-1H-indole-2-carboxamide], for which the IC50 worked out at 0.7 nM. Under `CC(C)C[C@H](NC(=O)OC1CCCC1Cc1cccc(Cl)c1)C(=O)N[C@@H](C[C@@H]1CCNC1=O)C(=O)NS(=O)(=O)C1CC1` (stereo partly drawn) [Compound C239, 2-(3-Chlorobenzyl) cyclopentyl ((S)-1-(((S)-1-(cyclopropanesulfonamido)-1-oxo-3-((S)-2-oxopyrrolidin-3-yl)propan-2-yl)amino)-4-methyl-1-oxopentan-2-yl) carbamate] stands over 20000 nM; under `CCCCC[C@H](NC(=O)OC(c1ccccc1)C(C)(C)c1cccc(Cl)c1)C(=O)N[C@H](C=O)C[C@@H]1CCNC1=O` (some centres unmarked) [Compound C267], 100 nM; under `CC(C)C[C@H](NC(=O)OC(Cc1ccccc1)c1ccccc1)C(=O)N[C@@H](C[C@@H]1CCNC1=O)C(=O)C(=O)N1CCN(C(=O)OC(C)(C)C)CC1` (some centres unmarked) [Compound C280], over 20000 nM. Under `CCOP(=O)(OCC)C(O)C(CC1CC2(CCCCC2)NC1=O)NC(=O)C(CC(C)C)NC(=O)OCc1cccc(Cl)c1` (stereo in doubt) [Compound C85, 3-Chlorobenzyl ((2R)-1-((1-(diethoxyphosphoryl)-1-hydroxy-3-(2-oxo-1-azaspiro[4.5]decan-3-yl)propan-2-yl)amino)-4-methyl-1-oxopentan-2-yl)carbamate] stands 17800 nM.
